Test results from patent US4180669A, “2-(N-phenethyl-4-piperidino)-5-pentyl resorcinol” (Abbott Laboratories, priority 1978, dated 1979).
Where a name gives a salt, the structure may show the parent alone. Read-outs that look alike come from different tables or passages of the source.

System: pylorous ligated rats
Assay: Antisecretory activity in the pylorous ligated rat model
Format: in vivo, male Sprague-Dawley rats
Conditions: for inhibition in vivo at 50 mg/kg / inhibition in vivo at 12.5 mg/kg / inhibition in vivo at 25 mg/kg / inhibition in vivo at 100 mg/kg: Rattus norvegicus, 4 h; for inhibition in vivo at 12.5 mg/kg: oral dose 12.5 mg/kg
Description: To determine the antisecretory activity of the present compounds, the compounds were tested for such activity in pylorous ligated rats. In this test, male Sprague-Dawley rats weighing 170-190 g. were fasted for 24 hours. Water was allowed ad libitum. All groups were comprised of six rats. […] Water was withheld after drug administration. Ligation of the pyrloric sphincter was performed under ether anesthesia, and four hours after ligation the animals were sacrificed with CO2. The stomach was dissected out and the contents were expelled into a graduated centrifuge tube. The samples were centrifuged and the volume, less debris, was measured. Sample aliquots were titrated with 0.05 N NaOH to determine acid concentration. Pepsin activity was determined on an auto analyzer using hemoglobin as the substrate by the method of Anson. Group means for volume, acid and pepsin concentrations, and pepsin outputs were compared for statistically significant differences from control means by Student's t-test.

[1] = oral dose 50 mg/kg, negative sign means stimulated
[2] = oral dose 50 mg/kg, negative sign means stimulated, read-out: Percent inhibition of pepsin
[3] = oral dose 50 mg/kg, negative sign means stimulated, read-out: Percent inhibition of pepsin output
[4] = oral dose 50 mg/kg, read-out: Percent inhibition of acid output
[5] = oral dose 50 mg/kg, read-out: Percent inhibition of acidity
[6] = oral dose 50 mg/kg, read-out: Percent inhibition of volume
[7] = negative sign means stimulated, read-out: Percent inhibition of pepsin
[8] = read-out: Percent inhibition of acid output
[9] = read-out: Percent inhibition of acidity
[10] = read-out: Percent inhibition of pepsin output
[11] = read-out: Percent inhibition of volume
[12] = oral dose 25 mg/kg, negative sign means stimulated, read-out: Percent inhibition of pepsin
[13] = oral dose 25 mg/kg, read-out: Percent inhibition of acid output
[14] = oral dose 25 mg/kg, read-out: Percent inhibition of acidity
[15] = oral dose 25 mg/kg, read-out: Percent inhibition of pepsin output
[16] = oral dose 25 mg/kg, read-out: Percent inhibition of volume
[17] = oral dose 100 mg/kg, negative sign means stimulated, read-out: Percent inhibition of pepsin
[18] = oral dose 100 mg/kg, read-out: Percent inhibition of acid output
[19] = oral dose 100 mg/kg, read-out: Percent inhibition of acidity
[20] = oral dose 100 mg/kg, read-out: Percent inhibition of pepsin output
[21] = oral dose 100 mg/kg, read-out: Percent inhibition of volume

Compound | inhibition in vivo at 50 mg/kg [2] [%] | inhibition in vivo at 50 mg/kg [3] [%] | inhibition in vivo at 50 mg/kg [4] [%] | inhibition in vivo at 50 mg/kg [5] [%] | inhibition in vivo at 50 mg/kg [6] [%] | also measured
2-(N-Methyl-1,2,3,4-tetrahydro-4-pyridyl)-5-(methyl) resorcinol [IX] |  |  |  |  |  | Percent inhibition of acid output (oral dose 50 mg/kg): 31.7%; Percent inhibition of acidity (oral dose 50 mg/kg): 12.1%; Percent inhibition of volume (oral dose 50 mg/kg): 21.9%; Percent inhibition of pepsin [1]: -7.2%; Percent inhibition of pepsin output [1]: 17.0%
2-(N-Propargyl-1,2,3,4-tetrahydro-4-pyridyl)-3-methoxy-5-(1,2-dimethylheptyl)phenol [XXIX] |  |  |  |  |  | Percent inhibition of acid output (oral dose 25 mg/kg): 7.8%; Percent inhibition of acidity (oral dose 25 mg/kg): 18.6%; Percent inhibition of volume (oral dose 25 mg/kg): -13.0%; Percent inhibition of acid output (oral dose 50 mg/kg): 45.6%; Percent inhibition of acidity (oral dose 50 mg/kg): 50.6%; Percent inhibition of volume (oral dose 50 mg/kg): -5.7%; Percent inhibition of pepsin [1]: 21.0%; Percent inhibition of pepsin output [1]: 23.9%; Percent inhibition of acid output (oral dose 100 mg/kg): 49.5%; Percent inhibition of acidity (oral dose 100 mg/kg): 58.1%; Percent inhibition of volume (oral dose 100 mg/kg): -21.8%
CC(C)C(C)c1cc(O)c(C2=CCN(C)CC2)c(O)c1 (stereo not drawn) [Example VII, 2-(N-Methyl-1,2,3,6-tetrahydro-4-pyridyl)-5-(1,2-dimethylpropyl) resorcinol hydrochloride] | -24.6 | -9.9 | 15.8 | 7.1 | 9.5 | 
CCCCCc1cc(O)c(C2=CCN(C)CC2)c(O)c1 [Example VIII, 2-(N-Methyl-1,2,3,6-tetrahydro-4-pyridyl)-5-pentyl resorcinol hydrochloride] | -2 | 55.9 | 74.4 | 41.5 | 57.4 | 
CCCCCC(C)C(C)c1cc(O)c(C2=CCN(C)CC2)c(O)c1 (stereo not drawn) [Example X, 2-(N-Methyl-1,2,3,6-tetrahydro-4-pyridyl)-5-(1,2-dimethylheptyl) resorcinol] | 41.5 | 48 | 69.3 | 66.8 | 7.7 | inhibition in vivo at 12.5 mg/kg [7]: 23.4%; inhibition in vivo at 12.5 mg/kg [8]: 10.8%; inhibition in vivo at 12.5 mg/kg [9]: 13.1%; inhibition in vivo at 12.5 mg/kg [10]: 22.6%; inhibition in vivo at 12.5 mg/kg [11]: -2.8%; inhibition in vivo at 25 mg/kg [12]: 45.1%; inhibition in vivo at 25 mg/kg [13]: 22.9%; inhibition in vivo at 25 mg/kg [14]: 20.9%; inhibition in vivo at 25 mg/kg [15]: 46.4%; inhibition in vivo at 25 mg/kg [16]: 1.4%; inhibition in vivo at 100 mg/kg [17]: 63%; inhibition in vivo at 100 mg/kg [18]: 69%; inhibition in vivo at 100 mg/kg [19]: 68.4%; inhibition in vivo at 100 mg/kg [20]: 63.2%; inhibition in vivo at 100 mg/kg [21]: 1.7%
CC(C)c1cc(O)c(C2=CCN(Cc3ccccc3)CC2)c(O)c1 [Example XI, 2-(N-Benzyl-1,2,3,6-tetrahydro-4-pyridyl)-5-isopropyl resorcinol hydrochloride] | -36 | 47.1 | 68.2 | 22.8 | 63.8 | 
CCCCCc1cc(O)c(C2=CCN(CCc3ccccc3)CC2)c(O)c1 [Example XIX, 2-(N-Phenethyl-1,2,3,6-tetrahydro-4-pyridyl)-5-pentyl resorcinol hydrochloride] | 6.9 | 31.7 | 27.3 | 4.2 | 25.5 | 
CCCCCC(C)C(C)c1cc(O)c(C2=CCNCC2)c(O)c1 (stereo not drawn) [Example XV, 2-(1,2,3,6-Tetrahydro-4-pyridyl)-5-(1,2-dimethylheptyl) resorcinol hydrochloride] | 53.8 | 54.3 | 22.8 | 24.3 | -1.4 | inhibition in vivo at 100 mg/kg [17]: 34.5%; inhibition in vivo at 100 mg/kg [18]: 52.8%; inhibition in vivo at 100 mg/kg [19]: 43.6%; inhibition in vivo at 100 mg/kg [20]: 41.4%; inhibition in vivo at 100 mg/kg [21]: 12.9%
CCCCCC(C)C(C)c1cc(O)c(C2=CCN(CCc3ccccc3)CC2)c(O)c1 (stereo not drawn) [Example XX, 2-(N-Phenethyl-1,2,3,6-tetrahydro-4-pyridyl)-5-(1,2-dimethylheptyl) resorcinol hydrochloride] |  |  | 47.8 | 10.7 | 42.8 | inhibition in vivo at 12.5 mg/kg [8]: 9.7%; inhibition in vivo at 12.5 mg/kg [9]: 8.5%; inhibition in vivo at 12.5 mg/kg [11]: 2.6%; inhibition in vivo at 25 mg/kg [13]: 17.1%; inhibition in vivo at 25 mg/kg [14]: 1.7%; inhibition in vivo at 25 mg/kg [16]: 16.9%; inhibition in vivo at 100 mg/kg [18]: 51.2%; inhibition in vivo at 100 mg/kg [19]: 19.5%; inhibition in vivo at 100 mg/kg [21]: 44.8%
CCCCCc1cc(O)c(C2CCN(CCc3ccccc3)CC2)c(O)c1 [Example XXI, 2-(N-Phenethyl-4-piperidino)-5-pentyl resorcinol hydrochloride] | -6.2 | 56.4 | 64.1 | 15 | 58.2 | inhibition in vivo at 12.5 mg/kg [7]: 11.4%; inhibition in vivo at 12.5 mg/kg [8]: 0.5%; inhibition in vivo at 12.5 mg/kg [9]: -4%; inhibition in vivo at 12.5 mg/kg [10]: 19.9%; inhibition in vivo at 12.5 mg/kg [11]: 6.5%; inhibition in vivo at 25 mg/kg [12]: 11.4%; inhibition in vivo at 25 mg/kg [13]: 32.7%; inhibition in vivo at 25 mg/kg [14]: 5.8%; inhibition in vivo at 25 mg/kg [15]: 41.4%; inhibition in vivo at 25 mg/kg [16]: 31.2%; inhibition in vivo at 100 mg/kg [17]: -12.7%; inhibition in vivo at 100 mg/kg [18]: 66.6%; inhibition in vivo at 100 mg/kg [19]: 16.1%; inhibition in vivo at 100 mg/kg [20]: 60.6%; inhibition in vivo at 100 mg/kg [21]: 61.8%
CCCCCC(C)C(C)c1cc(O)c(C2CCN(CCc3ccccc3)CC2)c(O)c1 (stereo not drawn) [Example XXII, 2-(N-phenethyl-4-piperidino)-5-(1,2-dimethylheptyl) resorcinol hydrochloride] | -7.1 | 30.9 | 37.6 | 8.5 | 37.3 | 
CCCCCC(C)C(C)c1cc(O)c(C2=CC3CCC(C2)N3C)c(O)c1 (stereo not drawn) [Example XXV, 2-(N-Methyl-2,6-ethylidene-1,2,3,6-tetrahydro-4-pyridyl)-5-(1,2-dimethylheptyl) resorcinol hydrochloride] | 1 | 11 | 29.4 | 21.2 | 9.7 | 
CCCCCC(C)C(C)c1cc(O)c(C2=CCN(C)CC2)c(OC)c1 (stereo not drawn) [Example XXVI, 2-(N-Methyl-1,2,3,6-tetrahydro-4-pyridyl)-3-methoxy-5-(1,2-dimethylheptyl)phenol hydrochloride] | 12.6 | 8.6 | 53.7 | 53.1 | -0.3 | 
CCCCCC(C)C(C)c1cc(O)c(C2=CCN(Cc3ccccc3)CC2)c(OC)c1 (stereo not drawn) [Example XXVII, 2-(N-Benzyl-1,2,3,6-tetrahydro-4-pyridyl)-3-methoxy-5-(1,2-dimethylheptyl)phenol hydrochloride] | 12.1 | -8.6 | -27.8 | -5.6 |  | 
CCCCCC(C)C(C)c1cc(O)c(C2CCNCC2)c(OC)c1 (stereo not drawn) [Example XXX, 2-(4-Piperidino)-3-methoxy-5-(1,2-dimethylheptyl)phenol hydrochloride] |  |  | 34.7 | 39.9 | -8.9 | 
CC(C)c1cc(O)c(C2=CCNCC2)c(O)c1 [XII, 2-(1,2,3,6-Tetrahydro-4-pyridyl)-5-isopropyl resorcinol hydrochloride] | -3.9 | 12.8 | 16.6 | 1.4 | 15.5 | 
CC(C)c1cc(O)c(C2=CCN(C(C)C)CC2)c(O)c1 [XIII, 2-(N-Isopropyl-1,2,3,6-tetrahydro-4-pyridyl)-5-isopropyl resorcinol hydrochloride] | 7.1 | 36.4 | 37.9 | 9.7 | 32 | 
CCCCCC(C)C(C)c1cc(O)c(C2CCN(C)CC2)c(O)c1 (stereo not drawn) [XVII, 2-(N-Methyl-4-piperidino)-5-(1,2-dimethylheptyl) resorcinol hydrochloride] | 40.5 | 40.6 | 38.5 | 38.1 | 0.3 | 
